16 compounds from patent US20230406849A1, “KRAS INHIBITORS FOR TREATMENT OF CANCERS” (TYLIGAND BIOSCIENCE (SHANGHAI) LIMITED, priority 2020, published 2023) can be followed below.

In data set [1] the test system is human non-small cell lung cancer cells NCI-H358 with KRas G12C mutation. Description: NCI-H358 cell proliferation, CellTiter-Glo Luminescent Cell Viability Assay. To be noted: for inhibition at 1 µM: 1 μM compound, read-out: Inhibition rate % (1 μM). Type of data set: cell-based. An excerpt: This assay verified the inhibitory activity of the compounds of the present disclosure on the proliferation of human non-small cell lung cancer cells NCI-H358 with KRas G12C mutation by using Promega's CellTiter-Glo® Luminescent Cell Viability Assay kit.
[Test materials]: NCI-H358 cell line (Cell Resource Center, IBMS, CAMS/PUMC, Item number: 3111C0001CCC000470), 96-well transparent flat-bottomed black-walled cell culture plate (Greiner Bio one, Cat #655096), RPMI-1640 Medium (GE, Cat #SH30809.01), Fetal Bovine Serum FBS (Thermo Fisher, Cat #10099-141), CellTiter-Glo® Luminescent Cell Viability Assay Kit (Promega, Cat #G7573), PBS (Solarbio, Cat #P1020), Trypsin (Thermo Fisher, Cat #25200072), DMSO (Sigma, Cat #D2650), Methyl cellulose (SIGMA, Cat #9004-67-5).
[Experimental procedure]: 180 μL of cell suspension (RPMI1640 solution with 10% FBS and 1% methyl cellulose) was charged to a 96-well cell culture plate at a density of 1500 cells/well. A control group containing no cells, no compounds and only 3D complete medium (RPMI 1640 solution with 1! Methyl cellulose and 10% FBS) (i.e. culture medium control) and a control group containing no compounds but cells (i.e. cell control) were set. AMG510 or the following reference compounds were used as positive controls. The cell plate was placed in a cell incubator overnight. A 10-fold drug solution (RPMI1640 solution with 10% FBS and 1% DMSO) was prepared at a concentration of 10 μM, and 20 μL of this solution was added to each well of the 96-well plate seeded with cells, so that the final concentration of the compounds in each well was 1 μM, and the DMSO concentration […] replicate wells were set up for each compound. The solutions of AMG510 or the following reference compounds were prepared in the same way and added to the positive control wells. The cell plate was placed in a cell incubator and cultured for 120 h. For endpoint detection, the CellTiter-Glo reagent was melted, and the cell plate was moved to room temperature to equilibrate for 30 minutes, added with 100 µL of CellTiter-Glo to each well, and shaken on an orbital shaker for 5 minutes to fully lyse the cells. The plate was kept at room temperature for 20 minutes to stabilize the luminescence signal, and the luminescence value of each well was full wavelength scanned with a multi-functional microplate reader (Molecular Devices, Spectramax M3 microplate reader).
[Test samples] The compounds of Examples 1-39, and reference compound A
[Data Analysis] The following formula was used to calculate the cell inhibition rate under the action of each concentration of the compounds:
Inhibition rate %=[1−(LumDrug to be tested−LumCulture medium control)/(LumCell control−LUMCulture medium control)]×100%
IC50 values were calculated using GraphPad Prism 7.0 software, nonlinear Sigmoidal regression was used to fit the data to obtain a dose-response curve.

Data set [2] is described as follows: Cassette pharmacokinetic experiment in rats (IV). To be noted: rat, plasma, 1 mg/kg, male SD rats, tail vein IV, 1 mg/mL each compound at 1 mL/kg. It counts as in vivo. An excerpt:
2.1 Pharmacokinetic Properties of Some Compounds of the Present Disclosure Evaluated by Cassette Pharmacokinetic Experiments in Rats.
[Test materials]: Male SD rats, age: 6-8 weeks, body weight 220-250 g, purchased from Zhaoyan (Suzhou) New Drug Research Center Co., Ltd.; Tolbutamide (Aladdin, Cat #H1401054); Sulfobutyl-(Captisol, Shandong Binzhou Zhiyuan Biological Technology Co., Ltd, Cat #20191013); Propylene glycol (15)-stearate (Solutol, Meilun Bio, Cat #50206A); DMSO (Vetec Company, Cat #WXBD0293V); acetonitrile (Sigma-Aldrich, Cat #WXBD1744V); Methanol (Sigma-Aldrich, Cat #WXBD2831V).
[Experimental procedure]: The compound combination was prepared in a solvent of 5% DMSO/10% Solutol/85% (20% Captisol), and the final concentration of each compound was 1 mg/mL. The SD rats were treated with the compound preparation in 1 mL/kg by tail vein IV injection, and blood samples were collected at the time points of 5 min, 15 min, 30 min, 1 h, 2 h, 4 h, 8 h, and 24 h via external jugular vein puncture, centrifuged at low temperature for 20 minutes to collect plasma samples, which were stored at −80° C. until analysis.
[Sample analysis]: Establishing LC-MS/MS compound analysis method
Standard curve preparation: 20 μL of lmg/mL DMSO stock solution for each compound was aspirated and transferred to […] of 50% methanol working solution, and the resulting solution was serially diluted to obtain a standard curve working solution with concentrations of 20000, 10000, 5000, 1000, 500, 100, 50, 20 and […]. Then 5 µL of this standard curve working solution was mixed with 45 μL rat blank plasma to give a standard curve with concentrations of 2000, 1000, 500, 100, 50, 10, 2 and 1 ng/mL for quantification of unknown samples.
Sample pretreatment: 50 μL of unknown plasma sample or standard curve sample was mixed with 250 μL of acetonitrile containing internal standard as a precipitant. The plasma protein was precipitated, extracted for test compounds, and centrifuged at low temperature for 20 minutes. The supernatant was taken, mixed with 0.1% formic acid aqueous solution, and 5 μL of the resulting solution was aspirated for blood concentration analysis.
[Data processing]: A standard curve was plotted using mass spectrometry software, to quantify unknown samples, and pharmacokinetic parameters are calculated by Winnonlin 8.2 using the drug concentration of unknown samples at each time point.

Molecules are shown by their SMILES. Where two headings read alike, the source gives them in different places.

As for `C=CC(=O)N1CCN(c2c(C#N)c(N)nc3c(F)c(-c4cccc5sc(N)nc45)c(Cl)cc23)CC1` [Example 33, 4-(4-Acryloylpiperazin-1-yl)-2-amino-7-(2-aminobenzo[d]thiazol-4-yl)-6-chloro-8-fluoroquinoline-3-carbonitrile], the IC50 in data set [1] (read-out: IC50 value) is less than 0.05 µM. Regarding `C=CC(=O)N1CCN(c2c(C#N)c(OC)nc3c(F)c(-c4ccc(F)c5sc(N)nc45)c(Cl)cc23)CC1` [Example 13, 4-(4-Acryloylpiperazin-1-yl)-7-(2-amino-7-fluorobenzo[d]thiazol-4-yl)-6-chloro-8-fluoro-2-methoxyquinoline-3-carbonitrile], in data set [2], the AUC(0-t) is 1950 ng·h/mL, the clearance was found to be 8.58 mL/min/kg and the half-life was 1.37 h. In the case of `C=CC(=O)N1CCN(c2c(C#N)c(N)nc3c(F)c(-c4ccc(F)c5sc(N)nc45)c(Cl)cc23)CC1` [Example 20, 4-(4-Acryloylpiperazin-1-yl)-2-amino-7-(2-amino-7-fluorobenzo[d]thiazol-4-yl)-6-chloro-8-fluoroquinoline-3-carbonitrile], in data set [1] (read-out: IC50 value), the half-inhibitory concentration (IC50) was less than 0.05 µM.

Turning to `C=CC(=O)N1CCN(c2c(C#N)c(-c3ccnn3C)nc3c(F)c(-c4ccc(F)c5sc(N)nc45)c(Cl)cc23)CC1` [Example 14, 4-(4-Acryloylpiperazin-1-yl)-7-(2-amino-7-fluorobenzo[d]thiazol-4-yl)-6-chloro-8-fluoro-2-(1-methyl-1H-pyrazol-5-yl)quinoline-3-carbonitrile], in data set [2], the AUC(0-t) amounted to 1100 ng·h/mL, the clearance was 15.1 mL/min/kg and the half-life is 1.58 h. The corresponding values for `C=CC(=O)N1CCN(c2c(C#N)c(-c3cn(C)nc3C)nc3c(F)c(-c4ccc(F)c5sc(N)nc45)c(Cl)cc23)CC1` [Example 15, 4-(4-Acryloylpiperazin-1-yl)-7-(2-amino-7-fluorobenzo[d]thiazol-4-yl)-6-chloro-2-(1,3-dimethyl-1H-pyrazol-4-yl)-8-fluoroquinoline-3-carbonitrile] are 717 ng·h/mL, 23.3 mL/min/kg and 1.03 h. With `C=CC(=O)N1CCN(c2c(C#N)c(C)nc3c(F)c(-c4ccc(F)c5sc(N)nc45)c(Cl)cc23)CC1` [Example 17, 4-(4-Acryloylpiperazin-1-yl)-7-(2-amino-7-fluorobenzo[d]thiazol-4-yl)-6-chloro-8-fluoro-2-methylquinoline-3-carbonitrile], the IC50 in data set [1] (read-out: IC50 value) is less than 0.05 µM. For the compound `C=CC(=O)N1CCN(c2c(C#N)c(-c3ccnn3CCN(C)C)nc3c(F)c(-c4ccc(F)c5sc(N)nc45)c(Cl)cc23)C[C@H]1C` [Example 7, 4-((R)-4-acryloyl-3-methylpiperazin-1-yl)-7-(2-amino-7-fluorobenzo[d]thiazol-4-yl)-6-chloro-2-(1-(2-(dimethylamino)ethyl)-1H-pyrazol-5-yl)-8-fluoroquinoline-3-carbonitrile], the inhibition at 1 µM in data set [1] (120 h) was determined as 90%. The IC50 in data set [1] (120 h, read-out: IC50) worked out at 0.26 µM. On to `C=CC(=O)N1CCN(c2c(C#N)c(C)nc3c(F)c(-c4ccc(F)c5sc(N)nc45)c(Cl)cc23)C[C@@H]1CC#N` [Example 32], for which the IC50 in data set [1] (read-out: IC50 value) is less than 0.05 µM. Turning to `C=CC(=O)N1CCN(c2c(C#N)c(-c3ccnn3CCN(C)C)nc3c(F)c(-c4ccc(F)c5sc(N)nc45)c(Cl)cc23)CC1` [Example 4, 4-(4-Acryloylpiperazin-1-yl)-7-(2-amino-7-fluorobenzo[d]thiazol-4-yl)-6-chloro-2-(1-(2-(dimethylamino)ethyl)-1H-pyrazol-5-yl)-8-fluoroquinoline-3-carbonitrile], the inhibition at 1 µM in data set [1] (120 h) is 94.8%. Further, in data set [1] (120 h, read-out: IC50), the IC50 was found to be 0.053 µM.

As for `C=CC(=O)N1CCN(c2c(C#N)c(N)nc3c(F)c(-c4c(F)ccc5sc(N)nc45)c(Cl)cc23)CC1` [Example 34, 4-(4-Acryloylpiperazin-1-yl)-2-amino-7-(2-amino-5-fluorobenzo[d]thiazol-4-yl)-6-chloro-8-fluoroquinoline-3-carbonitrile], the IC50 in data set [1] (read-out: IC50 value) was less than 0.05 µM. For the compound `C=CC(=O)N1CCN(c2c(C#N)cnc3c(F)c(-c4c(C)ccc5[nH]ncc45)c(Cl)cc23)CC1` [Ref. Comp. B, reference compound], the IC50 in data set [1] (120 h, read-out: IC50) amounted to 0.35 µM. For the compound `C=CC(=O)N1CCN(c2c(C#N)c(-c3cccc(C(C)N(C)C)c3)nc3c(F)c(-c4ccc(F)c5sc(N)nc45)c(Cl)cc23)CC1` (stereo not drawn) [Example 5, 4-(4-Acryloylpiperazin-1-yl)-7-(2-amino-7-fluorobenzo[d]thiazol-4-yl)-6-chloro-2-(3-(1-(dimethylamino)ethyl)phenyl)-8-fluoroquinoline-3-carbonitrile], the inhibition at 1 µM in data set [1] (120 h) was determined as 94.9%. The IC50 in data set [1] (120 h, read-out: IC50) is 0.007 µM; in data set [1] (read-out: IC50 value), less than 0.02 µM. In the case of `C=CC(=O)N1CCN(c2c(C#N)c(NC(C)=O)nc3c(F)c(-c4ccc(F)c5sc(N)nc45)c(Cl)cc23)CC1` [Example 37, N-(4-(4-acryloylpiperazin-1-yl)-7-(2-amino-7-fluorobenzo[d]thiazol-4-yl)-6-chloro-3-cyano-8-fluoroquinolin-2-yl)acetamide], the IC50 in data set [1] (read-out: IC50 value) was less than 0.05 µM. Consider `C=CC(=O)N1CCN(c2c(C#N)c(-c3cccc(CN(C)C)c3)nc3c(F)c(-c4ccc(F)c5sc(N)nc45)c(Cl)cc23)C[C@H]1C` [Example 6, 4-((R)-4-acryloyl-3-methylpiperazin-1-yl)-7-(2-amino-7-fluorobenzo[d]thiazol-4-yl)-6-chloro-2-(3-((dimethylamino)methyl)phenyl)-8-fluoroquinoline-3-carbonitrile], for which the inhibition at 1 µM in data set [1] (120 h) was determined as 95%. Besides, the IC50 in data set [1] (120 h, read-out: IC50) is 0.017 µM; in data set [1] (read-out: IC50 value) it was less than 0.02 µM.

Consider `C=CC(=O)N1CCN(c2c(C#N)c(-c3cccc(CN(C)C)c3)nc3c(F)c(-c4ccc(F)c5sc(N)nc45)c(Cl)cc23)CC1` [Example 3, 4-(4-Acryloylpiperazin-1-yl)-7-(2-amino-7-fluorobenzo[d]thiazol-4-yl)-6-chloro-2-(3-((dimethylamino)methyl)phenyl)-8-fluoroquinoline-3-carbonitrile], for which the inhibition at 1 µM in data set [1] (120 h) turned out to be 97.7%. In addition, the IC50 in data set [1] (120 h, read-out: IC50) is 0.009 µM; in data set [1] (read-out: IC50 value), less than 0.02 µM. With `C=CC(=O)N1CCN(c2c(C#N)cnc3c(OC)c(-c4ccc(F)c5sc(N)nc45)c(Cl)cc23)CC1` [Example 39, 4-(4-Acryloylpiperazin-1-yl)-7-(2-amino-7-fluorobenzo[d]thiazol-4-yl)-6-chloro-8-methoxy quinoline-3-carbonitrile], in data set [1] (read-out: IC50 value), the IC50 is less than 0.02 µM.
